Reference: patent US20250049831A1, “ANTIVIRAL USE OF BISE[…], AND BISEPOXYLIGNAN COMPOSITION AND PREPARATION OF BISE[…]” (priority 2021, published 2025)
Read-outs that look alike come from different tables or passages of the source.

Legend:
[1] = system: parainfluenza virus; test: Action links (Groups I-IV: prevention, treatment, direct inactivation), protection of cells against parainfluenza virus; assay type: cell-based; settings: for Protection rate (ER %), Group IV: drug and virus mixed and adsorbed for 2 h, then added with cells (direct inactivation); for Protection rate (ER %), Group III: drug solution and virus solution added at the same time (direct inactivation); for Protection rate (ER %), Group II: virus added first, drug added 1 h after adsorption (treatment); for Protection rate (ER %), Group I: virus solution added after 24 h of drug administration (prevention)
[2] = system: IL-2; test: Serum IL-2 in mice infected with influenza virus; assay type: in vivo, ICR mice; settings: Day 5 after influenza virus infection, gavage once a day, x ± s
Protocol: (§1) On the Day 5 after influenza virus infection, that is, Day 6 after administration, after the mice were fasted with solids for 8 h and weighed, venous blood was collected from the plexus ophthalmicus, and blood from mice in each group was preserved, subjected to serum separation, and stored in a refrigerator for later use. According to the instructions of a test kit, various detection and analysis were carried out, and IL-2 and TNF-α concentrations were calculated based on the standard detection and standard curve plotting.

[3] = system: parainfluenza virus; assay type: in vivo, Kunming mice; settings: for Hemagglutination titer inhibition rate (%): Day 5; for Hemagglutination titer: lung suspension, Day 5, […]
[4] = system: TNF-α; test: Serum TNF-α in mice infected with influenza virus; assay type: in vivo, ICR mice; settings: Day 5 after influenza virus infection, gavage once a day, x ± s
Protocol: as §1

[5] = system: COVID-19 Delta virus; test: Prophylactic administration, death protection of mice infected with COVID-19 Delta virus; settings: for Death rate / Survival rate / Mean survival: within 5 days of Delta infection, n = 8; for Mean survival: x ± s
Protocol: hACE2 transgenic C57BL/6 mice were divided (8 mice in each group) into a normal group (NC), a virus infection group (Virus), and drug groups (a COVID-19 Delta virus low-dose (40 mg/kg) group, high-dose (80 mg/kg) group; and a positive control group (Remdesivir 50 mg/kg). Before nasal dripping infection, the drug was administered by gavage 5 days in advance, once a day. After 5 days of continuous gavage, nasal dripping infection was performed, and mice in each COVID-19 virus infection group were infected with COVID-19 Delta virus with 10′ PFU by nasal dripping, except for the normal group who were given PBS by nasal dripping.
After infection, the body weight change was recorded every day, the death of animals within 5 days of infection was recorded, and the mean survival days and mortality rate of 5 days were calculated.

[6] = system: COVID-19 Delta virus; test: Prophylactic administration, virus titer in lung tissues of mice infected with COVID-19 Delta virus; settings: prophylactic gavage 5 days before infection, Day 5 after infection, TCID50 on VERO E6 cells
[7] = system: MCP-1; test: RT-qPCR of MCP-1 in lung homogenate of mice infected with COVID-19 Delta virus; settings: mRNA RT-qPCR, NC = 1.00
[8] = system: influenza virus FM1; test: Action links (Groups I-IV: prevention, treatment, direct inactivation), protection of cells against influenza virus; assay type: cell-based; settings: for Protection rate (ER %), Group IV: drug and virus mixed and adsorbed for 2 h, then added with cells (direct inactivation); for Protection rate (ER %), Group III: drug solution and virus solution added at the same time (direct inactivation); for Protection rate (ER %), Group II: virus added first, drug added 1 h after adsorption (treatment); for Protection rate (ER %), Group I: virus solution added after 24 h of drug administration (prevention)
[9] = system: IL-1β; test: RT-qPCR of IL-1β in lung homogenate of mice infected with COVID-19 Delta virus; settings: mRNA RT-qPCR, NC = 1.00
[10] = system: influenza virus; assay type: in vivo, Kunming mice; settings: for Hemagglutination titer inhibition rate (%): Day 5; for Hemagglutination titer: lung suspension
[11] = system: Vero cells; test: Drug cytotoxicity assay (MTT) on Vero cells; assay type: cell-based, African green monkey; settings: 72 h, Probit regression
Description: Vero cells were subcultured for 1-2 d to make them into flakes, and trypsinized in the presence of clear boundaries, strong three-dimensional sense and strong refractive power, until needle-like holes appeared on the cell surfaces; after the trypsinization solution was absorbed completely, a few milliliters of culture medium were taken to blow away the cells; the cells were counted, diluted to about 5×10^7/L with a culture medium (DMEM containing 10% fetal bovine serum), and then inoculated in a 96-well culture plate; and the cells grew into a monolayer.
Cytotoxicity test: the drugs were diluted at the concentrations shown in Table 3-1 for cytotoxicity assay.

[12] = system: parainfluenza virus; test: Effect of drug on virus-induced CPE (MTT, antiviral effective rate), parainfluenza virus in Vero cells; assay type: cell-based
[13] = system: influenza virus; test: Effect of drug on virus-induced CPE (MTT, antiviral effective rate), influenza virus in Vero cells; assay type: cell-based
[14] = system: COVID-19 virus; test: In-vitro antiviral CPE test in Vero E6 cells, COVID-19 virus; assay type: cell-based; settings: Vero E6 cells, 100 TCID50, CPE after 3-4 days; unit not given (drug concentrations 250-15.62 μg/mL); in µg/mL
[15] = prophylactic administration, High dose
[16] = prophylactic administration, Low dose
[17] = high-dose group 80 mg/kg gavage 5 days
[18] = low-dose group 40 mg/kg gavage 5 days

SMILES | Protection rate (ER %), Group IV [1] [%] | Protection rate (ER %), Group III [1] [%] | Protection rate (ER %), Group II [1] [%] | Protection rate (ER %), Group I [1] [%] | IL-2 expression level ([2]; High-dose group (26.0 mg/kg)) | IL-2 expression level ([2]; Low-dose group (13.0 mg/kg)) | Hemagglutination titer inhibition rate (%) ([3]; 13.0 mg/kg) | Hemagglutination titer ([3]; 13.0 mg/kg) | TNF-a expression level ([4]; High-dose group (26.0 mg/kg)) | TNF-a expression level ([4]; Low-dose group (13.0 mg/kg)) | Death rate [5, 15] [%] | Survival rate [5, 15] [%] | Mean survival [5, 15] [days] | Death rate [5, 16] [%] | Survival rate [5, 16] [%] | Mean survival [5, 16] [days] | Lung virus titer (x ± s, n = 8) ([6]; high dose 80 mg/kg) | Lung virus titer (x ± s, n = 8) ([6]; low dose 40 mg/kg) | Expression level of MCP-1 in lung homogenate (x ± s) [7, 17] | Expression level of MCP-1 in lung homogenate (x ± s) [7, 18] | other results
COc1ccc([C@H]2OC[C@H]3[C@@H]2CO[C@H]3c2ccc(O[C@@H]3O[C@H](CO)[C@@H](O)[C@H](O)[C@H]3O)c(OC)c2)cc1OC [Serial No. 2, phillyrin] | 100.93 | 100.67 | 85.94 | 84.48 | 262.88 ± 35.66 | 293.00 ± 21.88 | 37.52 | 21.63 ± 0.330 | 618.38 ± 28.86 | 683.47 ± 37.37 | 12.50 | 87.50 | 4.88 ± 0.35 | 75.00 | 25.00 | 3.88 ± 0.83 | 2.95 ± 0.57 | 3.70 ± 0.25 | 3.66 ± 11.30 | 7.42 ± 12.66 | Protection rate (ER %), Group IV [8]: 100.86%; Protection rate (ER %), Group III [8]: 100.68%; Protection rate (ER %), Group II [8]: 75.58%; Protection rate (ER %), Group I [8]: 75.86%; Expression level of IL-1β in lung homogenate (x ± s) [9, 17]: 5.11 ± 14.34; Expression level of IL-1β in lung homogenate (x ± s) [9, 18]: 10.58 ± 10.22; Hemagglutination titer inhibition rate (%) ([10]; 13.0 mg/kg): 43.30%; Hemagglutination titer ([10]; 13.0 mg/kg, Day 5, […]): 20.11 ± 0.351
CCC(CC)COC(=O)[C@H](C)N[P@](=O)(OC[C@H]1O[C@@](C#N)(c2ccc3c(N)ncnn23)[C@H](O)[C@@H]1O)Oc1ccccc1 [Remdesivir, reference compound] |  |  |  |  |  |  |  |  |  |  |  |  |  |  |  |  |  |  |  |  | Death rate ([5]; 50 mg/kg): 75.00%; Survival rate ([5]; 50 mg/kg): 25.00%; Mean survival ([5]; 50 mg/kg): 3.88 ± 0.83 days; Death protection rate ([5]; prophylactic administration, 50 mg/kg, within 5 days of infection): 75%; Lung virus titer (x ± s, n = 8) ([6]; 50 mg/kg): 3.69 ± 1.06; Expression level of MCP-1 in lung homogenate (x ± s) ([7]; 50 mg/kg, 5 days): 6.88 ± 5.73; Expression level of IL-1β in lung homogenate (x ± s) ([9]; 50 mg/kg, 5 days): 9.52 ± 6.37
CCOC(=O)C1=C[C@@H](OC(CC)CC)[C@H](NC(C)=O)[C@@H](N)C1 [Oseltamivir phosphate, reference compound] |  |  |  |  |  |  |  |  |  |  |  |  |  |  |  |  |  |  |  |  | Maximum non-toxic concentration (TC0) [11]: 0.29 g/L; Median toxic concentration (TC50) [11]: 831 µg/mL; IL-2 expression level ([2]; 19.5 mg/kg): 279.83 ± 23.26; Hemagglutination titer inhibition rate (%) ([3]; 19.5 mg/kg): 32.93%; Hemagglutination titer ([3]; 19.5 mg/kg): 23.22 ± 0.648; TNF-a expression level ([4]; 19.5 mg/kg): 658.91 ± 38.33; Effective rate, ER %, Parainfluenza Virus [12]: 91.16%; Effective rate, ER %, Influenza Virus ([13]; Vero cells, 100TCID50, drug at experimental concentration of Table 3-2 (about maximum non-toxic), 72 h, MTT): 81.92%; Hemagglutination titer inhibition rate (%) ([10]; 19.5 mg/kg): 37.78%; Hemagglutination titer ([10]; 19.5 mg/kg, Day 5, titer (InX)): 22.07 ± 0.235
COc1cc([C@H]2OC[C@H]3[C@@H]2CO[C@H]3c2ccc(OC)c(OC)c2)ccc1O [Serial No. 3, phillygenin] | 100.18 | 100.46 | 85.11 | 84.15 | 275.59 ± 31.88 | 306.70 ± 34.88 | 36.28 | 22.06 ± 0.310 | 648.40 ± 27.19 | 713.48 ± 39.74 | 12.50 | 87.50 | 4.88 ± 0.35 | 75.00 | 25.00 | 4.13 ± 0.64 | 2.98 ± 0.73 | 3.47 ± 0.98 | 3.67 ± 10.22 | 6.71 ± 4.38 | Protection rate (ER %), Group IV [8]: 100.38%; Protection rate (ER %), Group III [8]: 100.86%; Protection rate (ER %), Group II [8]: 75.51%; Protection rate (ER %), Group I [8]: 75.46%; Expression level of IL-1β in lung homogenate (x ± s) [9, 17]: 4.93 ± 16.18; Expression level of IL-1β in lung homogenate (x ± s) [9, 18]: 9.98 ± 11.16; Hemagglutination titer inhibition rate (%) ([10]; 13.0 mg/kg): 42.20%; Hemagglutination titer ([10]; 13.0 mg/kg, Day 5, […]): 20.50 ± 0.489
COc1cc(O)cc(C2OCC3C(c4ccc(OC5OC(CO)C(O)C(O)C5O)c(OC)c4)OCC23)c1 (stereo not drawn) [compound 1] |  |  |  |  |  |  |  |  |  |  |  |  |  |  |  |  |  |  |  |  | Maximum non-toxic concentration (TC0) [11]: 0.0067 g/L; Median toxic concentration (TC50) [11]: 560 µg/mL; Effective rate, ER %, Parainfluenza Virus [12]: 99.92%; Effective rate, ER %, Influenza Virus [13]: 89.02%; COVID-19 virus IC50 [14]: 62.1
